The values below come from patent US20070179181A1, “Treatment of inflammatory disorders and pain using beta-aminoalcohols” (priority 2004, published 2007).

One assay has as its system alpha1 adrenoceptor. Nature of the assay: Alpha1 adrenoceptor binding affinity (3H-prazosin, rat brain homogenate). On the set-up: species or system Wistar rats. As to conditions: radioligand 3H-prazosin 0.25 nM. The method, then:
Adrenoceptor Binding Affinity Brains from Wistar rats were homogenised and incubated with test article (over a concentration range) and the radioligand 3H-prazosin (0.25 nM) for 30 minutes at 25° C., in a 50 mM Tris-HCl, 0.1% ascorbic acid, 10 μM pargyline incubation buffer. After washing, binding was measured by scintillation counting. LPS Mouse Assay

The subject of assay [1] is rat adjuvant model of arthritis. Nature of the assay: Rat adjuvant assay (model of arthritis). It counts as in vivo, Wistar rats. On the procedure:
Rat Adjuvant Assay Male Wistar rats (180 to 200 g) were inoculated by subplantar injection of freund's adjuvant (suspension of Mycobacterium butyricum in mineral oil) into the right paw at day 0. Sham inoculations were injected in the same way with 0.9% saline in matched Male Wistar rats. On day 2 animals were weighed. On days 3, 4, 7, 9 and 11 animals were weighed and both their right and left hind paws were measure by plethsymometry by submerging the paw up to the tibiotarsal joint. On day 11, rats with left hind paw volumes increased by 20% were selected for continuance in the study. On the same day continuance rats were administered test article orally (10 ml/kg in distilled water) and from then on once a day until the completion of the study. Left and right hind paw volumes were measured on days 11, 14, 15, 16, 18 and 21.

For the next assay, the system named is TNFα. In words: LPS mouse assay, serum TNFα. It is filed as in vivo, Balb C ByJ mice. Conditions: LPS-challenged mouse. The method, then:
Brains from Wistar rats were homogenised and incubated with test article (over a concentration range) and the radioligand 3H-prazosin (0.25 nM) for 30 minutes at 25° C., in a 50 mM Tris-HCl, 0.1% ascorbic acid, 10 μM pargyline incubation buffer. After washing, binding was measured by scintillation counting. LPS Mouse Assay
7 week old Balb C ByJ mice (24-28 g) were administered, either by i.p. (5 ml/kg) or oral (10 ml/kg) administration, with vehicle or test article. 30 minutes later these animals were challenged with an intraperitoneal injection of 1 mg/kg LPS. 2 hours after LPS challenge blood samples were collected under light isoflurane anaesthesia into normal tubes by retro-orbital puncture. Samples were allowed to clot at room temperature and then spun at 6000 g for 3 min at 4° C. Serum was stored at −20° C. until use. Serum TNFa and IL-10 levels were analysed in duplicate by ELISA technique.

`CC(C(O)c1ccc(O)cc1)N1CCC(Cc2ccccc2)CC1` (stereo not drawn) [erythro (+), Ifenprodil]: the Alpha1 affinity in the assay with alpha1 adrenoceptor came to 63 nM. Same read-out and setting: next, `CC(C(O)c1ccc(O)cc1)N1CCC(Cc2ccccc2)CC1` (stereo not drawn) [erythro (−), Ifenprodil]: 482 nM. With `CC(CCc1ccccc1)NCC(O)c1ccc(O)c(C(N)=O)c1` (stereo not shown) [labetalol], the “efficacy in rat adjuvant model of arthritis” value in assay [1] (30 mg/kg) and in assay [1] (100 mg/kg) was “Pronounced (and similar) efficacy” each time. `CC(NCCc1ccc(O)cc1)C(O)c1ccc(O)cc1` (stereo not shown) [ritodrine]: the “LPS-induced systemic TNFα release in mouse blood” value in the assay with TNFα is reported as “cytokine modulatory activity”. Turning to `CC(C(O)c1ccc(O)cc1)N1CCC(Cc2ccccc2)CC1` (stereo not drawn) [threo (+), Ifenprodil], the Alpha1 affinity in the assay with alpha1 adrenoceptor was 2160 nM.

`CC(C(O)c1ccc(O)cc1)N1CCC(Cc2ccccc2)CC1` (stereo not drawn) [threo (−), Ifenprodil] gave an Alpha1 affinity in the assay on alpha1 adrenoceptor of 439 nM.
